Results from patent US20090105217A1, “2-PHENYL-5-AMINO-1,3,4-OXADIAZOLES AND THEIR USE AS NICOTINIC ACETYLCHOLINE RECEPTOR LIGANDS” (priority 2007, published 2009).
Counter-ions that a name gives are not always drawn.

Target: T1, human α7 nAChR (Homo sapiens, UniProt P36544)
T1 construct: host or cells: GH4C1 cells (pituitary tumor, immortalized cell line)
Experiment: α7 nAChR FLIPR (Fluorometric Imaging Plate Reader) Ca2+ assay, agonist EC50
Type: cell-based
Conditions: for EC50: GH4C1 cells stably transfected with human α7 nAChR, Fluo-4 Ca2+ fluorescence, Examples 194 to 205 tested as the HCl salt, read-out: pEC50 value (negative logarithm of the agonist EC50) (converted); for activity in the alpha 7 assay: alpha 7 assay described in the Examples
Experimental: α7 nAChR FLIPR® (Fluorometric Imaging Plate Reader) Assay
Function of the heterologous expressed α7 nAChR was assessed by a FLIPR-Ca^2+ assay. Since nAChRs are non-selective cation channels with high permeability to Ca^2+, these studies were carried out by measuring changes of intracellular Ca^2+ concentration using the Ca^2+-chelating fluorescent dye Fluo-4 and FLIPR® (Fluorometric Imaging Plate Reader) technology.
GH4C1cells (pituitary tumor, immortalized cell line) stably transfected with human α7 nAChR (Biocat ID 96986), were thawed, suspended in growth medium (Ham's Nutrient Mixture F10—Ham's F10, Invitrogen 31550-023, 15% Horse Serum heat inactivated—Invitrogen 26050-047, 2.5% Foetal Bovine Serum—FBS, Gibco 10500-064, 200 μg/ml Hygromycin B—Invitrogen, 10687-010, 10 mg/L Phenol Red—Sigma, P 0290, 1 mM Glutamine—Invitrogen, 25030-024) and plated in 500 cm^2 Triple Flask.
Cells were then incubated at 30° C., 5% CO2 for 72 hours.
On the day of the experiment, cells were washed twice with Assay Buffer (AB) (145 mM NaCl, 5 mM KCl, 1 mM MgCl2, 2 mM CaCl2, 20 mM HEPES, 5.5 mM Glucose pH=7.3) containing 2.5 mM Probenecid. Changes in the intracellular Ca^2+ content of stably transfected cells were measured using the Ca^2+ chelating dye Fluo-4 (Tef Labs 0152) in conjunction with a FLIPR® (Molecular Devices). The cell permeant dye Fluo-4 was prepared to a concentration of 1 mM in 100% DMSO and 10% Pluronic acid. The dye was then diluted with AB to a final concentration of 2 μM and placed on the cells. After 45-60 minutes dye loading incubation at 37° C., the unincorporated dye was removed from the cells by washing (80 μL, 3 times) with AB, and a final volume of 30 μL/well of AB was left in each well.
Plates containing test compounds (dissolved in 100% DMSO at 2 mM and serially diluted with DMSO) were copied into “daughter” plates (1 μL/well dispensation). Just prior to starting the assay, the “daughter” plate was diluted with 50 μL/well of AB.
The plates were then placed in the FLIPR®, and cell fluorescence was determined before drug addition (30 seconds) and monitored (excitation 488 nm, emission 510-580 nm) immediately following exposure to compounds. Maximum fluorescence values were recorded and fitted for agonist EC50 calculations.
The results are expressed as pEC50 values. A pEC50 is the negative logarithm of the agonist EC50 calculation as determined in the α7 nAChR FLIPR® assay. […] Variations in pEC50 may arise between tests.

T1 sequence (P36544 23-502): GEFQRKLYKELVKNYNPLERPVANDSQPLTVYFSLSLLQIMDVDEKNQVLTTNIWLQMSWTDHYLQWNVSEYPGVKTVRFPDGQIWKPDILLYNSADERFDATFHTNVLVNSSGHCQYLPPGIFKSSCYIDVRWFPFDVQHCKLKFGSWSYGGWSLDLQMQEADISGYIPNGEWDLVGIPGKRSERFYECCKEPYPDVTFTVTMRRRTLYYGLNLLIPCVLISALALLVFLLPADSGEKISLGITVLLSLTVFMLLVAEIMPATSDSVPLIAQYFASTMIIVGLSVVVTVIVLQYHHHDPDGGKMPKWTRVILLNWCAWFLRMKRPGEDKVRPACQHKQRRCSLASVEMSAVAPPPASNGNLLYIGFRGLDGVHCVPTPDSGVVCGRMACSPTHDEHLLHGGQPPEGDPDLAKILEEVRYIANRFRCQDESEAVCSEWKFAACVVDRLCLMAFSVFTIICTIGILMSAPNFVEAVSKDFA

Compound	EC50	activity in the alpha 7 assay
O=C(Nc1ccc(-c2nnc(NCCCCN3CCOCC3)o2)c(C(F)(F)F)c1)C1CCCCC1 [Example 66, N-[4-(5-{[4-(4-morpholinyl)butyl]amino}-1,3,4-oxadiazol-2-yl)-3-(trifluoromethyl)phenyl]cyclohexanecarboxamide]	≤ 1000 nM	
O=C(Nc1ccc(-c2nnc(NCCCN3CCCCC3)o2)c(F)c1)C1CCCCC1 [Example 53, N-[3-fluoro-4-(5-{[3-(1-piperidinyl)propyl]amino}-1,3,4-oxadiazol-2-yl)phenyl]cyclohexanecarboxamide]	≤ 1000 nM	
CCN(CC)CCCNc1nnc(-c2ccc(NC(=O)c3ccc(F)cc3)cc2OC)o1 [Example 202, N-[4-(5-{[3-(Diethylamino)propyl]amino}-1,3,4-oxadiazol-2-yl)-3-(methyloxy)phenyl]-4-fluorobenzamide]	≤ 1000 nM	
O=C(Nc1ccc(-c2nnc(NCCCCN3CCOCC3)o2)c(Cl)c1)c1ccccc1 [Example 102, N-[3-chloro-4-(5-{[4-(4-morpholinyl)butyl]amino}-1,3,4-oxadiazol-2-yl)phenyl]benzamide]	≤ 100 nM	
O=C(Nc1ccc(-c2nnc(NCCCCN3CCCC3)o2)c(C(F)(F)F)c1)C1CCCCC1 [Example 64, N-[4-(5-{[4-(1-pyrrolidinyl)butyl]amino}-1,3,4-oxadiazol-2-yl)-3-(trifiuoromethyl)phenyl]cyclohexanecarboxamide]	≤ 1000 nM	
CCN(CC)CCCNc1nnc(-c2ccc(NC(=O)c3ccccc3)cc2C(F)(F)F)o1 [Example 95, N-[4-(5-{[3-(diethylamino)propyl]amino}-1,3,4-oxadiazol-2-yl)-3-(trifluoromethyl)phenyl]benzamide]	≤ 1000 nM	
CCN(CC)CCCCNc1nnc(-c2ccc(NC(=O)C3CCCCC3)cc2)o1 [Example 150, N-[4-(5-{[4-(diethylamino)butyl]amino}-1,3,4-oxadiazol-2-yl)phenyl]cyclohexanecarboxamide]	≤ 1000 nM	
O=C(Nc1ccc(-c2nnc(NCCCCN3CCCCC3)o2)c(C(F)(F)F)c1)c1ccccc1 [Example 98, N-[4-(5-{[4-(1-piperidinyl)butyl]amino}-1,3,4-oxadiazol-2-yl)-3-(trifluoromethyl)phenyl]benzamide]	≤ 100 nM	
COc1cc(NC(=O)C2CCCCC2)ccc1-c1nnc(NCCCN2CCCC2)o1 [Example 77, N-[3-(methyloxy)-4-(5-{[3-(1-pyrrolidinyl)propyl]amino}-1,3,4-oxadiazol-2-yl)phenyl]cyclohexanecarboxamide]	≤ 1000 nM	
CCN(CC)CCCNc1nnc(-c2ccc(NC(=O)c3ccc(OC)cc3)cc2)o1 [N-[4-(5-{[3-(Diethylamino)propyl]amino}-1,3,4-oxadiazol-2-yl)phenyl]-4-(methyloxy)benzamide]		not found to have activity
CCN(CC)CCCNc1nnc(-c2ccc(NC(=O)c3cccc(F)c3)cc2OC)o1 [Example 203, N-[4-(5-{[3-(Diethylamino)propyl]amino}-1,3,4-oxadiazol-2-yl)-3-(methyloxy)phenyl]-3-fluorobenzamide]	≤ 1000 nM	
CCN(CC)CCCNc1nnc(-c2ccc(NC(=O)C3CCCCC3)cc2Cl)o1 [Example 159, N-[3-chloro-4-(5-{[3-(diethylamino)propyl]amino}-1,3,4-oxadiazol-2-yl)phenyl]cyclohexanecarboxamide]	≤ 1000 nM	
O=C(Nc1ccc(-c2nnc(NCCCN3CCCC3)o2)c(F)c1)C1CCCCC1 [Example 56, N-[3-fluoro-4-(5-{[3-(1-pyrrolidinyl)propyl]amino}-1,3,4-oxadiazol-2-yl)phenyl]cyclohexanecarboxamide]	≤ 1000 nM	
CCN(CC)CCCNc1nnc(-c2ccc(NC(=O)C3CCCCC3)cc2C(F)(F)F)o1 [Example 67, N-[4-(5-{[3-(diethylamino)propyl]amino}-1,3,4-oxadiazol-2-yl)-3-(trifluoromethyl)phenyl]cyclohexanecarboxamide]	≤ 1000 nM	

Results, then the molecule that gave them:

EC50	activity in the alpha 7 assay	Compound
≤ 100 nM		O=C(Nc1ccc(-c2nnc(NCCCCN3CCCCC3)o2)c(C(F)(F)F)c1)c1ccccc1F [Example 90, 2-fluoro-N-[4-(5-{[4-(1-piperidinyl)butyl]amino]-1,3,4-oxadiazol-2-yl)-3-(trifluoromethyl)phenyl]benzamide]
≤ 100 nM		CCc1cc(NC(=O)c2ccccc2F)ccc1-c1nnc(NCCCCN2CCCC2)o1 [Example 170, N-[3-ethyl-4-(5-{[4-(1-pyrrolidinyl)butyl]amino}-1,3,4-oxadiazol-2-yl)phenyl]-2-fluorobenzamide]
≤ 1000 nM		CC1(C)CCN(CCCNc2nnc(-c3ccc(NC(=O)c4ccccc4F)cc3)o2)CC1 [Example 135, N-[4-(5-{[3-(4,4-dimethyl-1-piperidinyl)propyl]amino}-1,3,4-oxadiazol-2-yl)phenyl]-2-fluorobenzamide]
≤ 1000 nM		CCN(CC)CCCNc1nnc(-c2ccc(NC(=O)c3ccccc3F)cc2F)o1 [Example 50, N-[4-(5-{[3-(diethylamino)propyl]amino}-1,3,4-oxadiazol-2-yl)-3-fluorophenyl]-2-fluorobenzamide]
≤ 1000 nM		O=C(Nc1ccc(-c2nnc(NCCCCN3CCOCC3)o2)c(C(F)(F)F)c1)c1ccccc1F [Example 87, 2-fluoro-N-[4-(5-{[4-(4-morpholinyl)butyl]amino}-1,3,4-oxadiazol-2-yl)-3-(trifluoromethyl)phenyl]benzamide]
≤ 100 nM		O=C(Nc1ccc(-c2nnc(NCCCCN3CCCC3)o2)c(Cl)c1)c1ccccc1 [Example 100, N-[3-chloro-4-(5-{[4-(1-pyrrolidinyl)butyl]amino}-1,3,4-oxadiazol-2-yl)phenyl]benzamide]
≤ 100 nM		O=C(Nc1ccc(-c2nnc(NCCCCN3CCCC3)o2)c(Cl)c1)c1ccccc1F [Example 153, N-[3-chloro-4-(5-{[4-(1-pyrrolidinyl)butyl]amino}-1,3,4-oxadiazol-2-yl)phenyl]-2-fluorobenzamide]
	not found to have activity	CCCN(CCC)CCCNc1nnc(-c2ccc(NC(=O)c3ccccc3F)cc2)o1 [N-[4-(5-{[3-(dipropylamino)propyl]amino}-1,3,4-oxadiazol-2-yl)phenyl]-2-fluorobenzamide]
≤ 100 nM		CCN(CC)CCCCNc1nnc(-c2ccc(NC(=O)c3ccccc3F)cc2Cl)o1 [Example 156, N-[3-chloro-4-(5-{[4-(diethylamino)butyl]amino}-1,3,4-oxadiazol-2-yl)phenyl]-2-fluorobenzamide]
≤ 100 nM		O=C(Nc1ccc(-c2nnc(NCCCCN3CCCC3)o2)c(C(F)(F)F)c1)c1ccccc1F [Example 85, 2-fluoro-N-[4-(5-{[4-(1-pyrrolidinyl)butyl]amino}-1,3,4-oxadiazol-2-yl)-3-(trifluoromethyl)phenyl]benzamide]
≤ 1000 nM		O=C(Nc1ccc(-c2nnc(NCCCN3CCCCC3)o2)c(C(F)(F)F)c1)c1ccccc1 [Example 97, N-[4-(5-{[3-(1-piperidinyl)propyl]amino}-1,3,4-oxadiazol-2-yl)-3-(trifluoromethyl)phenyl]benzamide]
≤ 100 nM		CCOc1cc(NC(=O)c2ccccc2)ccc1-c1nnc(NCCCN2CCCCC2)o1 [Example 190, N-[3-(ethyloxy)-4-(5-{[3-(1-piperidinyl)propyl]amino}-1,3,4-oxadiazol-2-yl)phenyl]benzamide]
≤ 1000 nM		O=C(Nc1ccc(-c2nnc(NCCCN3CCCCC3)o2)cc1)c1ccc(Cl)cc1 [Example 18, 4-Chloro-N-[4-(5-{[3-(1-piperidinyl)propyl]amino}-1,3,4-oxadiazol-2-yl)phenyl]benzamidehydrochloride]
≤ 100 nM		CCN(CC)CCCCNc1nnc(-c2ccc(NC(=O)c3ccccc3)cc2)o1 [Example 119, N-[4-(5-{[4-(diethylamino)butyl]amino}-1,3,4-oxadiazol-2-yl)phenyl]benzamide]
≤ 100 nM		O=C(Nc1ccc(-c2nnc(NCCCN3CCN4CCC3CC4)o2)cc1)c1ccccc1 [Example 123, N-[4-(5-{[3-(1,4-diazabicyclo[3.2.2]non-4-yl)propyl]amino}-1,3,4-oxadiazol-2-yl)phenyl]benzamide]
≤ 100 nM		O=C(Nc1ccc(-c2nnc(NCCCN3CCN4CCC3CC4)o2)c(F)c1)c1ccccc1F [Example 121, N-[4-(5-{[3-(1,4-diazabicyclo[3.2.2]non-4-yl)propyl]amino}-1,3,4-oxadiazol-2-yl)-3-fluorophenyl]-2-fluorobenzamide]
